Drawing on article PMC7377239, “Cardiovascular Effects of Polychlorinated Biphenyls and Their Major Metabolites” (Environmental Health Perspectives, 2020), this text covers minimal effective concentration for 1 molecule.

Counter-ions that a name gives are not always drawn. Like-named read-outs stand apart in the source and are kept apart here.

Assay [1] has as its system iCell cardiomyocytes (human iPSC-derived cardiomyocytes). Nature of the assay: High-content imaging of cytotoxicity and mitochondrial integrity in iPSC-CMs. The conditions noted are these: Homo sapiens, Cardiomyocyte, cardiomyocytes (cm). It is filed as cell-based. In outline: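 Readouts from high-content images were normalized to vehicle controls containing 0.5% vol/vol DMSO. They were fit to a four-parameter logistic model in R. Points of departure were set using a cutoff of one standard deviation across vehicle control means. Where no concentration–response was seen, the top tested concentration of 100μM was assigned as the no observable adverse effect level.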

The subject of assay [2] is HUVECs. Description: High-content imaging cytotoxicity in HUVECs, 24 h. Particulars: Homo sapiens, HUVEC, 24 h, HUVEC, 24 hr. It is filed as cell-based, human. The method, boiled down:
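HUVECs (passages 1–5) grown to monolayer over 3–5 d, then exposed 24 h at 37°C, 5% CO2; stained with Hoechst 33342, MitoTracker Orange and calcein AM and imaged at 10×. Readouts normalized to 0.5% DMSO vehicle, four-parameter logistic fit; POD at one-SD cutoff, 100μM assigned when no response.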

In the case of `O=S(=O)(O)Oc1cc(-c2ccccc2)ccc1Cl` [3-PCB 3 sulfate], the minimal effective concentration is 100 µM in assay [1] (1.5 h, cam, 90 min, read-out: POD cm.cam.90min); 100 µM in assay [1] (1.5 h, mii, 90 min, read-out: POD cm.mii.90min); 100 µM in assay [1] (1.5 h, mito, 90 min, read-out: POD cm.mito.90min); 100 µM in assay [1] (1.5 h, tc, 90 min, read-out: POD cm.tc.90min); 100 µM in assay [1] (24 h, cam, 24 hrs, read-out: POD cm.cam.24hrs); 22.8 µM in assay [1] (24 h, mii, 24 hrs, read-out: POD cm.mii.24hrs). For the same molecule, the minimal effective concentration turned out to be 100 µM in assay [1] (24 h, mito, 24 hrs, read-out: POD cm.mito.24hrs); 100 µM in assay [1] (24 h, tc, 24 hrs, read-out: POD cm.tc.24hrs); 100 µM in assay [2] (cyto, read-out: POD huvec.cyto.24hr); 100 µM in assay [2] (mito, read-out: POD huvec.mito.24hr); 100 µM in assay [2] (mitoint, read-out: POD huvec.mitoint.24hr); 100 µM in assay [2] (nma, read-out: POD huvec.nma.24hr). The minimal effective concentration in assay [2] (tc, read-out: POD huvec.tc.24hr) was 100 µM.
